Assay results as given in patent publication US12421221B2 (ONCOBIX CO., LTD., priority 2019, dated 2025).

Experiments:
ALK (L1196M) = ALK (L1196M) (Homo sapiens, UniProt Q9UM73, L1196M); test: Kinase inhibitory activity (33P-ATP filter-binding, scintillation counting); type: biochemical
Protocol: (§1) The measurement of the kinase inhibitory activity was performed in the following method.
(§2) 2. An evaluation compound (DMSO solution) and Mg/ATP were added to perform the reaction.
(§3) 3. After about 40 minutes at room temperature, 10 μL of 0.5% phosphoric acid was added to complete the reaction.
(§4) 4. The reaction solution was divided by 0.5% 10 μL and spotted on a P30 filtermat.
(§5) 5. […] The reaction solution was washed once with methanol and then dried and analyzed with scintillation counting to measure IC50 values.

EGFR (del19/L858R/T790M) = EGFR (del19/L858R/T790M) (Homo sapiens, UniProt P00533, T790M, form not given); test: as above; type: biochemical
Protocol: as §1, §2, §3, §4, §5

EGFR (del19/T790M/C797S) = EGFR (del19/T790M/C797S) (Homo sapiens, UniProt P00533, C797S/DEL746-750/T790M); test: as above; type: biochemical
Protocol: as §1, §2, §3, §4, §5

H3122 (EML4-ALK v1) = test: Cancer cell growth inhibitory effect (MTT assay); type: cell-based; details: Homo sapiens, NCI-H3122, 72 hours, read-out: H3122 cell growth inhibition IC50
Protocol: (§6) With respect to the compounds obtained in Examples, a growth inhibitory effect of ALK mutation cancer cells and EGFR mutation Ba/F3 cancer cell lines was measured. The anti-cancer efficacy activity measurement was performed by the following method using an ALK mutation cell line such as H3122 (EML4-ALK v1), H2228 (EML4-ALK v3), etc. and an EGFR mutation Ba/F3 stable cell line.
(§7) 2×10^5 cells were seeded on a 96-well plate. After 24 hours, each of the drugs was treated in a dose dependent manner, and incubated after 72 hours, a 15 μL MTT reagent reacted for 4 hours, and then 100 μL 10% SDS was added and incubated for 24 hours. […] MTT result analysis measured the IC50 values through prism software.

H2228 (EML4-ALK v3) = test: Cancer cell growth inhibitory effect (MTT assay); type: cell-based; details: Homo sapiens, NCI-H2228, 72 hours, read-out: H2228 cell growth inhibition IC50
Protocol: as §6, §7

[1] = molecular target: T1, EGFR mutation Ba/F3 stable cell line DEL19/T790M/C797S (Homo sapiens, UniProt P00533, DEL746-750/T790M/C797S, cells depend on it); test: Cancer cell growth inhibitory effect (MTT assay); type: cell-based, Murine; details: 72 hours, read-out: DEL19/T790M/C797S cell growth inhibition IC50
T1 construct: "del19, #32062; del19+T790M, #32072)
Protocol: as §6
Ba/F3 stable cell line construction: Murine lymphoid cells performed IL-3 dependent growth. […] A stable cell line was constructed using this principle even without puromycin selection. Briefly, each construction was infected on Ba/F3, and after 48 hours, IL-3 was removed by media exchange and cells were cultured. However, in the case of the wild type EGFR, puromycin selection was performed.
as §7

SMILES | IC50 (ALK (L1196M)) [nM] | IC50 (EGFR (del19/L858R/T790M)) [nM] | IC50 (EGFR (del19/T790M/C797S)) [nM] | IC50 (H3122 (EML4-ALK v1)) [nM] | IC50 (H2228 (EML4-ALK v3)) [nM] | IC50 [1] [nM]
COc1cc(N2CCOCC2)c(-c2cnn(C)c2)cc1Nc1ncc(Cl)c(Nc2ccccc2N(C)S(C)(=O)=O)n1 [Example 1, N-(2-((5-chloro-2-((2-methoxy-5-(1-methyl-1H-pyrazol-4-yl)-4-morpholinophenyl)amino)pyrimidine-4-yl)amino)phenyl)-N-methylmethanesulfonamide] | < 50 | < 50 | < 50 | 50 to 100 | < 100 | < 100
COc1cc(N2CCOCC2)c(-c2cnn(C)c2)cc1Nc1ncc(Cl)c(Nc2ccccc2NS(C)(=O)=O)n1 [Example 2, N-(2-((5-chloro-2-((2-methoxy-5-(1-methyl-1H-pyrazol-4-yl)-4-morpholinophenyl)amino)pyrimidine-4-yl)amino)phenyl)methanesulfonamide] | < 50 |  |  | 50 to 100 | < 100 | 
COc1cc(N2CCSCC2)c(-c2cnn(C)c2)cc1Nc1ncc(Cl)c(Nc2ccccc2N(C)S(C)(=O)=O)n1 [Example 3] | < 50 | < 50 | < 50 | 50 to 100 | < 100 | < 100
COc1cc(N2CCN(C)CC2)c(-c2cnn(C)c2)cc1Nc1ncc(Cl)c(Nc2ccccc2N(C)S(C)(=O)=O)n1 [Example 4] | < 50 | < 50 | 50 to 100 | 50 to 100 | 50 to 100 | 50 to 100
COc1cc(N2CC3(COC3)C2)c(-c2cnn(C)c2)cc1Nc1ncc(Cl)c(Nc2ccccc2N(C)S(C)(=O)=O)n1 [Example 5, N-(2-((5-chloro-2-((2-methoxy-5-(1-methyl-1H-pyrazol-4-yl)-4-(2-oxa-6-azaspiro[3.3]heptane-6-yl)phenyl)amino)pyrimidine-4-yl)amino)phenyl)-N-methylmethanesulfonamide] | < 50 | < 50 | < 50 | 50 to 100 | < 100 | < 100
COc1cc(N2CC3(CN(C)C3)C2)c(-c2cnn(C)c2)cc1Nc1ncc(Cl)c(Nc2ccccc2N(C)S(C)(=O)=O)n1 [Example 6, N-(2-((5-chloro-2-((2-methoxy-5-(1-methyl-1H-pyrazol-4-yl)-4-(6-methyl-2,6-diazaspiro[3.3]heptane-2-yl)phenyl)amino)pyrimidine-4-yl)amino)phenyl)-N-methylmethanesulfonamide] | < 50 | < 50 | 50 to 100 | 50 to 100 | 50 to 100 | 50 to 100
COc1cc(N2CCSCC2)c(-c2cnn(C)c2)cc1Nc1ncc(Cl)c(Nc2ccccc2NS(C)(=O)=O)n1 [Example 7, N-(2-((5-chloro-2-((2-methoxy-5-(1-methyl-1H-pyrazol-4-yl)-4-thiomorpholinophenyl)amino)pyrimidine-4-yl)amino)phenyl)methanesulfonamide] | < 50 | < 50 | < 50 | 50 to 100 | < 100 | < 100
COc1cc(N2CCN(C)CC2)c(-c2cnn(C)c2)cc1Nc1ncc(Cl)c(Nc2ccccc2NS(C)(=O)=O)n1 [Example 8, N-(2-((5-chloro-2-((2-methoxy-5-(1-methyl-1H-pyrazol-4-yl)-4-(4-methylpiperazine-1-yl)phenyl)amino)pyrimidine-4-yl)amino)phenyl)methanesulfonamide] | < 50 | 50 to 100 | 50 to 100 | > 500 | > 500 | 50 to 100
COc1cc(N2CC3(COC3)C2)c(-c2cnn(C)c2)cc1Nc1ncc(Cl)c(Nc2ccccc2NS(C)(=O)=O)n1 [Example 9, N-(2-((5-chloro-2-((2-methoxy-5-(1-methyl-1H-pyrazol-4-yl)-4-(2-oxa-6-azaspiro[3.3]heptane-6-yl)phenyl)amino)pyrimidine-4-yl)amino)phenyl)methanesulfonamide] | < 50 | < 50 | < 50 | 50 to 100 | 50 to 100 | < 100
COc1cc(N2CC3(CN(C)C3)C2)c(-c2cnn(C)c2)cc1Nc1ncc(Cl)c(Nc2ccccc2NS(C)(=O)=O)n1 [Example 10, N-(2-((5-chloro-2-((2-methoxy-5-(1-methyl-1H-pyrazol-4-yl)-4-(6-methyl-2,6-diazaspiro[3.3]heptane-2-yl)phenyl)amino)pyrimidine-4-yl)amino)phenyl)methanesulfonamide] | < 50 | 50 to 100 | 50 to 100 | > 500 | > 500 | 50 to 100
C=CC(=O)Nc1cc(Nc2nccc(-c3cn(C)c4ccccc34)n2)c(OC)cc1N(C)CCN(C)C [Osimertinib, osimertinib, reference compound] | 50 to 100 |  |  | > 500 | > 500 | 
